In patent publication US11660307B2, “Methods for treating SARS CoV-2 infections” (Gilead Sciences, Inc., priority 2020, dated 2023):
Read-outs that look alike come from different tables or passages of the source.

Key:
SARS-CoV-2 = assay: microbe, parasite or virus in culture; assay type: cell-based; conditions: Severe acute respiratory syndrome coronavirus 2, 48 h; read-out: SARS-CoV-2 (2-day) EC50
[1] = A549 cytotoxicity analysis (CellTiter-Glo); assay type: cell-based; conditions: human
Procedure: The cytotoxicity of compounds was determined in A549 cells in the following manner. Compounds (200 nL) were spotted onto 384-well Grenier plates prior to seeding 5000 A549 cells/well in a volume of 40 μL culture medium. The plates were incubated at 37° C. for 48 hours with 5% CO2. On day 2, 40 μL of CellTiter-Glo (Promega) was added and mixed 5 times. Plates were read for luminescence on an Envision (PerkinElmer) and the CC50 (compound concentration for reducing 50% of luminescence signal as a measure of cell viability) were calculated using a nonlinear regression model (four parameters).

2019-nCoV = assay: Intravenous Compound 32 against 2019-nCoV in rhesus monkeys; assay type: in vivo; conditions: 10 mg/kg IV once daily, vs vehicle
[2] = A549 cells, 48 hours, CellTiter-Glo, read-out: A549 Cytotoxicity (2-day) CC50

| Compound | EC50 (SARS-CoV-2) | CC50 at 48 h [1] | CC50 at 48 h [1, 2] | cumulative clinical scores (2019-nCoV) | disease symptoms (2019-nCoV) |
| --- | --- | --- | --- | --- | --- |
| N#C[C@@]1(c2ccc3c(N)ncnn23)O[C@H](CO)[C@@H](O)[C@H]1O | 869 ± 289 nM | > 50000 nM |  |  |  |
| CCC(CC)COC(=O)[C@H](C)N[P@@](=O)(OC[C@H]1O[C@@](C#N)(c2ccc3c(N)ncnn23)[C@H](O)[C@@H]1O)Oc1ccccc1 | 272 ± 75 nM |  | 17700 nM |  |  |
| CCC(CC)COC(=O)[C@H](C)N[P@](=O)(OC[C@H]1O[C@@](C#N)(c2ccc3c(N)ncnn23)[C@H](O)[C@@H]1O)Oc1ccccc1 [Compound 32, (S)-2-ethylbutyl 2-(((S)-(((2R,3S,4R,5R)-5-(4-aminopyrrolo[2,1-f][1,2,4]triazin-7-yl)-5-cyano-3,4-dihydroxytetrahydrofuran-2-yl)methoxy)(phenoxy)phosphoryl)amino)propanoate] |  |  |  | notably higher in vehicle-treated animals | less pronounced |
| CCC(CC)COC(=O)[C@H](C)N[P@](=O)(OC[C@H]1O[C@@](C#N)(c2ccc3c(N)ncnn23)[C@H](O)[C@@H]1O)Oc1ccccc1 [drawing 141] | 135 ± 20 nM |  | > 25200 nM |  |  |
